Values of other authors in publication PMC3985708 (Biochemistry, 2014).

What was measured:
unmodified hASL^Lys3 = details: read-out: Kd of NCp7 for unmodified ASL
modified hASL^Lys3UUU = details: read-out: Kd, modified hASL^Lys3UUU; Kd value from previous studies

Row | Kd (modified hASL^Lys3UUU) | Substance | Kd (unmodified hASL^Lys3) | Increase of NCp7 affinity for hASL^Lys3 by the modifications (modified hASL^Lys3; modified versus unmodified ASL) | Kd (modified hASL^Lys3; read-out: Kd of NCp7 for modified ASL, modified hASL^Lys3)
1 |  | NCp7: HIV-1 nucleocapsid protein 7 (MQRGNFRNQRKIVKCFNCGKEGHTARNCRAPRKKGCWKCGKEGHQMKDCTERQAN; Nucleocapsid protein p7; UniProt P04591 378-432, looked up) | 2.3 ± 0.62 µM | ~10 fold | 0.28 ± 0.03 µM
2 | 0.5 ± 0.1 µM | RVTHHAFLGAHRTVG [P6] |  |  | 
